ChEMBL document CHEMBL1150099, “An improved source of bryostatin 10, Bugula neritina from the Gulf of Aomori, Japan” (1995)
Converted amounts (≈) assume the structure as drawn. Each block holds one molecule with its values, some of them ahead of it. The source made the active and inactive calls. No cut-off for these calls is given here.

What was measured:
P388 = assay: Cytotoxicity against mouse P388 cells; type: functional; conditions: read-out: ED50 (the source's name)
Echinoidea = assay: Inhibition of fertilization of sea urchin egg at 1 ug/ml; type: functional
Sperm = assay: Inhibition of movement of sea urchin sperm at 1 ug/ml; type: functional, cell-based; conditions: Echinoidea
[1] = Inhibition of fertilized sea urchin egg cell division; type: functional; conditions: Echinoidea, read-out: ED50 (the source's name)
[2] = Increase in ACTH-induced steroidogenesis in bovine adrenocortical cells measured per 10^5 cells; type: functional, Bos taurus

Compound: COC(=O)/C=C1/C[C@H]2C[C@]3(O)O[C@H](C[C@@H](O)CC(=O)O[C@@H]([C@@H](C)OC(C)=O)C[C@@H]4C/C(=C/C(=O)OC)C[C@@](O)(O4)C(C)(C)/C=C/[C@@H](C1)O2)C[C@H](OC(=O)C(C)(C)C)C3(C)C
EC50 (P388): 0.44 µg/mL (≈ 0.517 µM)
inhibition (Echinoidea): 80%

Compound: CCC(=O)O[C@H](C)[C@H]1C[C@@H]2C/C(=C/C(=O)OC)C[C@@](O)(O2)C(C)(C)/C=C/[C@H]2C/C(=C\C(=O)OC)C[C@@H](C[C@]3(O)O[C@H](C[C@@H](O)CC(=O)O1)C[C@H](OC(=O)C(C)(C)C)C3(C)C)O2
EC50 (P388): 0.52 µg/mL (≈ 0.601 µM)
Activity (Sperm): Active
inhibition (Echinoidea): 80%

EC50 [1]: 0.3 µg/mL (≈ 0.379 µM)
Compound: COC(=O)/C=C1\C=C2O[C@@H](C1)C[C@H]([C@@H](C)O)OC(=O)C[C@H](O)C[C@@H]1C[C@H](OC(=O)C(C)(C)C)C(C)(C)[C@](O)(C[C@@H]3C/C(=C/C(=O)OC)C[C@H](/C=C/C2(C)C)O3)O1 [BRYOSTATIN 17]
inhibition (Echinoidea): 100%

Compound: COC(=O)/C=C1/C[C@H]2C[C@]3(O)O[C@H](C[C@@H](O)CC(=O)O[C@@H]([C@@H](C)O)C[C@@H]4C/C(=C\C(=O)OC)C[C@@](O)(O4)C(C)(C)/C=C/[C@@H](C1)O2)C[C@H](OC(=O)C(C)(C)C)C3(C)C [BRYOSTATIN 10]
Activity [2]: 1141 pmol/h
EC50 (P388): 0.0018 µg/mL (≈ 0.00223 µM)
EC50 [1]: 0.16 µg/mL (≈ 0.198 µM)

Compound: CCCC(=O)O[C@H](C)[C@H]1C[C@@H]2C/C(=C/C(=O)OC)C[C@@](O)(O2)C(C)(C)/C=C/[C@H]2C/C(=C\C(=O)OC)C[C@@H](C[C@]3(O)O[C@H](C[C@@H](O)CC(=O)O1)C[C@H](OC(=O)C(C)(C)C)C3(C)C)O2
EC50 (P388): 0.32 µg/mL (≈ 0.364 µM)
inhibition (Echinoidea): 80%
